Source: ChEMBL document CHEMBL1649459, “Analysis of cell membrane characteristics of in vitro-selected daptomycin-resistant strains of methicillin-resistant Staphylococcus aureus” (2009)
In brackets after ≈: the same amount, converted by molar mass.

Columns and labels:
Type in all cases: functional
Staphylococcus aureus [1] = assay: Antimicrobial activity against methicillin-resistant Staphylococcus aureus MW2 CB2202 harboring […] MprF T345I mutant after 5-day passage containing sublethal concentration of compound by Etest method; details: MW2 CB2202, 120 h
Staphylococcus aureus [2] = assay: Antimicrobial activity against methicillin-resistant Staphylococcus aureus MW2 CB2201 after 1-day passage containing sublethal concentration of compound by Etest method; details: MW2 CB2201, 24 h
Staphylococcus aureus [3] = assay: Antimicrobial activity against methicillin-resistant Staphylococcus aureus MW2 CB1118 by Etest method
Staphylococcus aureus [4] = assay: Antimicrobial activity against methicillin-resistant Staphylococcus aureus MW2 CB2203 harboring […] MprF T345I, RpoB I953S mutant after 14-day passage containing sublethal concentration of compound by Etest method; details: MW2 CB2203, 336 h
Staphylococcus aureus [5] = assay: Antimicrobial activity against methicillin-resistant Staphylococcus aureus MW2 CB2205 harboring […] MprF T345I, RpoB I953S,YycG S221P mutant after 20-day passage containing sublethal concentration of compound by Etest method; details: MW2 CB2205, 480 h

SMILES: CCCCCCCCCC(=O)N[C@@H](Cc1c[nH]c2ccccc12)C(=O)N[C@H](CC(N)=O)C(=O)N[C@@H](CC(=O)O)C(=O)N[C@@H]1C(=O)NCC(=O)N[C@@H](CCCN)C(=O)N[C@@H](CC(=O)O)C(=O)N[C@H](C)C(=O)N[C@@H](CC(=O)O)C(=O)NCC(=O)N[C@H](CO)C(=O)N[C@@H]([C@H](C)CC(=O)O)C(=O)N[C@@H](CC(=O)c2ccccc2N)C(=O)O[C@@H]1C
- MIC (Staphylococcus aureus [1]): 3 µg/mL (≈ 1.85 µM)
- MIC (Staphylococcus aureus [2]): 1.5 µg/mL (≈ 0.926 µM)
- MIC (Staphylococcus aureus [3]): 1 µg/mL (≈ 0.617 µM)
- MIC (Staphylococcus aureus [4]): 6 µg/mL (≈ 3.7 µM)
- MIC (Staphylococcus aureus [5]): 12 µg/mL (≈ 7.4 µM)
